Experimental data from ChEMBL document CHEMBL1159104, “Potent transglutaminase inhibitors, aryl beta-aminoethyl ketones” (Bioorg Med Chem Lett, 2010).

Each compound was assayed against T1, Protein-glutamine gamma-glutamyltransferase (Cavia porcellus, UniProt Q7M0F8) (assay: Inhibition of guinea pig liver transglutaminase).
T1 sequence (Q7M0F8 whole entry): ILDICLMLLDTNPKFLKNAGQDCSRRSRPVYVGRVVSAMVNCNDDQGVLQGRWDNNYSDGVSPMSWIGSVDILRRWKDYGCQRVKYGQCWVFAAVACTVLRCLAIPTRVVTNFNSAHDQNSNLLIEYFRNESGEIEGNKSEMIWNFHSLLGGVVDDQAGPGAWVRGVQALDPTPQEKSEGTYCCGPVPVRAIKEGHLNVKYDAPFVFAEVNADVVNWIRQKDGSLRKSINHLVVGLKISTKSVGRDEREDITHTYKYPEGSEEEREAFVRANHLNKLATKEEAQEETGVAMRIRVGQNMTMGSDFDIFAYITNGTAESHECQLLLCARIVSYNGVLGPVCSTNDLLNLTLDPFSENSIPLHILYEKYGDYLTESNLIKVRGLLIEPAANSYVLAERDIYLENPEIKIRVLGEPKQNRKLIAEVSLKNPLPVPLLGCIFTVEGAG

SMILES	IC50
CN(CCO)CCC(=O)c1ccsc1	14000 nM
CCN(CCC(=O)c1ccco1)Cc1ccccc1	550 nM
CC(C)N(CCO)CCC(=O)c1ccc(F)cc1	10000 nM
CN(CCC(=O)c1ccc2ccccc2c1)Cc1ccccc1	21000 nM
CC(C)N(CCC(=O)c1nccs1)Cc1ccccc1	3200 nM
O=C(CCN(CCO)CCO)c1ccco1	360 nM
CC(C)(C)N(CCC(=O)c1ccco1)Cc1ccccc1	650 nM
O=C(CCN(CCO)CCO)c1ccc2ccccc2c1	22000 nM
CCCCN(CCO)CCC(=O)c1ccc(C)o1	800 nM
CC(C)N(CCO)CCC(=O)c1ccc(C#N)cc1	6100 nM
CCc1nccnc1C(=O)CCN(Cc1ccccc1)C(C)C	920 nM
CN(CCC(=O)c1cnccn1)Cc1ccccc1	1200 nM
CCCCN(CCO)CCC(=O)c1ccccn1	10000 nM
CCCCN(CCO)CCC(=O)c1cccnc1	2700 nM
CN(CCO)CCC(=O)c1ccncc1	7900 nM
O=C(CCN(CCO)CCO)c1ccncc1	3500 nM
CCCCN(CCO)CCC(=O)c1ccncc1	2500 nM
CC(C)N(CCO)CCC(=O)c1cccs1	6500 nM
CC(C)N(CCO)CCC(=O)c1ccc(Cl)s1	5400 nM
CC(C)N(CCO)CCC(=O)c1cnccn1	6900 nM
CC(C)(C)N(CCC(=O)c1ccc(F)cc1)Cc1ccccc1	1100 nM
CCN(CCC(=O)c1ccc(F)cc1)Cc1ccccc1	13000 nM
CN(CCC(=O)c1ccco1)Cc1ccccc1	1800 nM

SMILES	IC50
CC(C)N(CCC(=O)c1ccc2ccccc2c1)Cc1ccccc1	4000 nM
CC(C)N(CCO)CCC(=O)c1ccc2ccccc2c1	16000 nM
CC(C)(C)N(CCO)CCC(=O)c1ccncc1	11000 nM
Cc1ccc(C(=O)CCN(Cc2ccccc2)C(C)(C)C)o1	2300 nM
CC(C)N(CCC(=O)c1ccco1)Cc1ccccc1	320 nM
CCc1nccnc1C(=O)CCN(CCO)CCO	15000 nM
O=C(CCN(CCO)Cc1ccccc1)c1ccncc1	2500 nM
Cc1ccc(C(=O)CCN(Cc2ccccc2)C(C)C)o1	320 nM
CCN(CCC(=O)c1ccncc1)Cc1ccccc1	1400 nM
CC(C)N(CCC(=O)c1ccc(Cl)cc1)Cc1ccccc1	1400 nM
CC(C)N(CCO)CCC(=O)c1ccc(Cl)cc1	2200 nM
CCCCN(CCO)CCC(=O)c1cccs1	19000 nM
O=C(CCN(CCO)Cc1ccccc1)c1cccs1	10000 nM
CN(CCO)CCC(=O)c1cccs1	4000 nM
CCCCN(CCO)CCC(=O)c1ccc(Br)s1	1400 nM
CCc1nccnc1C(=O)CCN(Cc1ccccc1)C(C)(C)C	1700 nM
CC(C)(C)N(CCC(=O)c1ccc(Cl)s1)Cc1ccccc1	100 nM
CCN(CCC(=O)c1ccc(Cl)s1)Cc1ccccc1	420 nM
O=C(CCN(CCO)Cc1ccccc1)c1ccc(Cl)s1	1500 nM
CN(CCC(=O)c1ccccn1)Cc1ccccc1	17000 nM
CC(C)(C)N(CCO)CCC(=O)c1ccco1	4500 nM
CCCCN(CCO)CCC(=O)c1ccco1	840 nM
O=C(CCN(CCO)Cc1ccccc1)c1ccc2c(Cl)cccc2c1	1500 nM

SMILES	IC50
CCCCN(CCO)CCC(=O)c1ncc(C)s1	2300 nM
CC(C)(C)N(CCC(=O)c1ccccc1)Cc1ccccc1	1700 nM
CCN(CCC(=O)c1ccccn1)Cc1ccccc1	2700 nM
CC(C)(C)N(CCC(=O)c1ccccn1)Cc1ccccc1	1000 nM
CC(C)N(CCC(=O)c1ccccn1)Cc1ccccc1	1100 nM
CCCCN(CCO)CCC(=O)c1ccc2c(Cl)cccc2c1	1900 nM
CC(C)N(CCC(=O)c1ccc(Cc2ccccc2)cc1)Cc1ccccc1	2600 nM
Cc1ccc(C(=O)CCN(CCO)C(C)C)o1	420 nM
Cc1ccc(C(=O)CCN(CCO)Cc2ccccc2)o1	6600 nM
CN(CCC(=O)c1ccncc1)Cc1ccccc1	2000 nM
CN(CCO)CCC(=O)c1ccccn1	> 30000 nM
CC(C)(C)N(CCO)CCC(=O)c1ccccn1	12000 nM
CN(CCO)CCC(=O)c1cnccn1	9900 nM
CC(C)N(CCC(=O)c1ccc(Br)s1)Cc1ccccc1	190 nM
CC(C)(C)N(CCC(=O)c1ccc(Br)s1)Cc1ccccc1	81 nM
CC(C)(C)N(CCC(=O)c1cc2ccccc2s1)Cc1ccccc1	210 nM
O=C(CCN(CCO)CCO)c1ccccn1	5100 nM
CC(C)N(CCO)CCC(=O)c1ccccn1	5400 nM
O=C(CCN(CCO)Cc1ccccc1)c1ccncn1	4900 nM
CC(C)(C)N(CCO)CCC(=O)c1cnccn1	2700 nM
CCCCN(CCO)CCC(=O)c1cnccn1	1700 nM
CC(C)(C)N(CCC(=O)c1ccc(Cc2ccccc2)cc1)Cc1ccccc1	3600 nM
CN(CCC(=O)c1ccc(Cc2ccccc2)cc1)Cc1ccccc1	26000 nM

SMILES	IC50
CC(C)N(CCO)CCC(=O)c1cc2ccccc2s1	9400 nM
CC(C)(C)N(CCC(=O)c1nccs1)Cc1ccccc1	1400 nM
O=C(CCN(CCO)Cc1ccccc1)c1cnccn1	1500 nM
CCN(CCC(=O)c1cnccn1)Cc1ccccc1	670 nM
O=C(CCN(CCO)Cc1ccccc1)c1nccs1	8500 nM
CC(C)N(CCO)CCC(=O)c1nccs1	16000 nM
O=C(CCN(CCO)CCO)c1nccs1	6900 nM
CN(CCO)CCC(=O)c1cccnc1	5200 nM
CC(C)N(CCC(=O)c1cnccn1)Cc1ccccc1	530 nM
CC(C)(C)N(CCO)CCC(=O)c1nccs1	10000 nM
CN(CCO)CCC(=O)c1nccs1	4700 nM
Cc1cnc(C(=O)CCN(C)Cc2ccccc2)s1	1800 nM
CC(C)(C)N(CCO)CCC(=O)c1cccnc1	7800 nM
O=C(CCN(CCO)CCO)c1cccnc1	3300 nM
CC(C)N(CCO)CCC(=O)c1cccnc1	7400 nM
O=C(CCN(CCO)Cc1ccccc1)c1cccnc1	2300 nM
CN(CCC(=O)c1cccnc1)Cc1ccccc1	4000 nM
O=C(CCN(CCO)Cc1ccccc1)c1ccccc1	11000 nM
Cc1ccc(C(=O)CCN(CCO)C(C)(C)C)o1	680 nM
CC(C)(C)N(CCC(=O)c1cccs1)Cc1ccccc1	440 nM
CC(C)N(CCC(=O)c1cccs1)Cc1ccccc1	1400 nM
CC(C)N(CCO)CCC(=O)c1ccncc1	4800 nM
CC(C)N(CCC(=O)c1ccc(C#N)cc1)Cc1ccccc1	590 nM

SMILES	IC50
CC(C)(C)N(CCC(=O)c1cccnc1)Cc1ccccc1	470 nM
CC(C)N(CCC(=O)c1cccnc1)Cc1ccccc1	830 nM
CCN(CCC(=O)c1ccc(C)o1)Cc1ccccc1	2800 nM
CCN(CCC(=O)c1cccs1)Cc1ccccc1	2100 nM
CN(CCC(=O)c1cccs1)Cc1ccccc1	10000 nM
CC(C)N(CCC(=O)c1ccc(F)cc1)Cc1ccccc1	10000 nM
CC(C)N(CCC(=O)c1ccncc1)Cc1ccccc1	830 nM
CC(C)N(CCO)CCC(=O)c1ccsc1	11000 nM
CCCCN(CCO)CCC(=O)c1ccsc1	12000 nM
CCN(CCC(=O)c1ccsc1)Cc1ccccc1	12000 nM
O=C(CCN(CCO)CCO)c1cnccn1	1200 nM
CN(CCC(=O)c1ccsc1)Cc1ccccc1	10000 nM
O=C(CCN(CCO)Cc1ccccc1)c1ccsc1	12000 nM
CN(CCO)CCC(=O)c1ccco1	1200 nM
CC(C)N(CCO)CCC(=O)c1ccccc1	10000 nM
O=C(CCN(CCO)CCO)c1ccc(Cl)s1	1900 nM
CC(C)N(CCC(=O)c1ccsc1)Cc1ccccc1	8600 nM
CC(C)(C)N(CCC(=O)c1ccsc1)Cc1ccccc1	11000 nM
CC(C)N(CCC(=O)c1cc2ccccc2s1)Cc1ccccc1	770 nM
CC(C)N(CCC(=O)c1cc(Cl)sc1Cl)Cc1ccccc1	980 nM
CC(C)N(CCO)CCC(=O)c1cc(Cl)sc1Cl	2500 nM
O=C(CCN(CCO)CCO)c1ccsc1	13000 nM
CC(C)N(CCC(=O)c1ccc2c(Cl)cccc2c1)Cc1ccccc1	1700 nM

SMILES	IC50
O=C(CCN(CCO)Cc1ccccc1)c1csc(Cl)c1	2700 nM
CC(C)(C)N(CCC(=O)c1ccncc1)Cc1ccccc1	1400 nM
CC(C)(C)N(CCC(=O)c1ccc(C#N)cc1)Cc1ccccc1	1700 nM
CCN(CCC(=O)c1cccnc1)Cc1ccccc1	1700 nM
Cc1ccc(C(=O)CCN(CCO)CCO)o1	6500 nM
CCc1nccnc1C(=O)CCN(CCO)Cc1ccccc1	18000 nM
CN(CCC(=O)c1ccc(Cl)s1)Cc1ccccc1	1000 nM
CC(C)(C)N(CCC(=O)c1cnccn1)Cc1ccccc1	570 nM
CN(CCC(=O)c1nccs1)Cc1ccccc1	4300 nM
CCc1nccnc1C(=O)CCN(CCO)C(C)C	7700 nM
CC(C)(C)N(CCO)CCC(=O)c1ccc(C#N)cc1	10000 nM
Cc1ccc(C(=O)CCN(C)CCO)o1	1400 nM
O=C(CCN(CCO)Cc1ccccc1)c1ccco1	1300 nM
CC(C)(C)N(CCC(=O)c1ccc(Cl)cc1)Cc1ccccc1	700 nM
CC(C)N(CCO)CCC(=O)c1ccco1	120 nM
CC(C)N(CCC(=O)c1ccccc1)Cc1ccccc1	5600 nM
Cc1cnc(C(=O)CCN(Cc2ccccc2)C(C)C)s1	850 nM
Cc1ccc(C(=O)CCN(C)Cc2ccccc2)o1	4300 nM
O=C(CCN(CCO)CCO)c1cccs1	8300 nM
CC(C)(C)N(CCO)CCC(=O)c1cccs1	6800 nM
CCN(CCC(=O)c1nccs1)Cc1ccccc1	2600 nM
CCN(CCC(=O)c1ccc(Br)s1)Cc1ccccc1	610 nM
CC(C)N(CCC(=O)c1ccc(Cl)s1)Cc1ccccc1	230 nM
